# Where a name gives a salt, the structure may show the parent alone.
# Columns and labels:
# Wall of Aorta = assay: Proportion of components constituting the wall of aorta (histochemical assay, fifth intercostal pars of thoracic aorta); assay type: in vivo, Male Japanese white rabbits
# From the text: (§1) In this example, the effects of the present compound on the wall of a blood vessel, a serum lipid and a blood glucose level were studied on the experimental sclerosis rabbits from the determination of the arterial sclerosis action, the assay of the components constituting the wall of the blood vessel and the transitional analysis of the damage of the blood wall with time.
# (§2) Male Japanese white rabbits (25 months age) were randomly divided into three groups. A normal diet was given to one group (called hereafter "healthy group"). The remaining two groups were fed with 100 g/day of a high α-starch, high salinity and low protein, sclerosis diet containing 0.3% cholesterol (manufactured by Funabashi Farm), simultaneously injected intramuscularly with norepinephrine (3 mg) and bred for 150 days. One group of them was called hereafter "sclerosis group". […] Every 50 days, Aortic Pulse Wave Velocity (PWV) was measured to determine a average hardness of aorta of the rabbits. After five months and just before slaughter of the rabbits, blood was drawn to determine cholesterol in blood (T-Cho), triglyceride (TG), β-lipoprotein (β-Lp), HDL choresterol and a blood glucose level. After slaughter, a fifth intercostal pars in the thoracic aorta was extracted and then subjected to formalin fixation and embedding in paraffin. Subsequently, each component of smooth muscle cell (SMC), elastin (EL), collagen (CL), glycosaminoglycan (GAGs), PAS positive substance (PAS), calcium (Ca) and cholesterol (Cho) was histochemically observed and assayed.
# [1] = Serum lipid and blood glucose level in experimental sclerosis rabbits; assay type: in vivo, Male Japanese white rabbits; details: rabbit, oral 3 mg once per day, after five months
# From the text: as §1, §2
# [2] = test system: experimental sclerosis rabbits; assay: Change of Aortic Pulse Wave Velocity (ΔPWV) in experimental sclerosis rabbits; assay type: in vivo, Male Japanese white rabbits
# From the text: as §1, §2
# PWV is increasing with the advance of growth, maturation and ageing. Thus an increase in PWV value is an indication of arterial sclerosis (see Arterial Sclerosis, vol. 8, No. 1 April 1980, pp 91-95).
# in vivo = details: mouse, in vivo, po, average
# mice = assay: in vivo; details: oral
# [3] = rabbit, oral 3 mg once per day, after 150 days
smiles,measurement,setting,value
Cl.Cn1cc(OCC(O)CNC(C)(C)C)c2ccccc2c1=O (racemic) [(±)-4-(3-tert.-butylamino-2-hydroxypropoxy)-2-methyl-1 (2H)-isoquinolinone hydrochloride],Improvement in arterial sclerosis,"Wall of Aorta; Table 2, drug administered group",remarkable improvement in arterial sclerosis
same,Proportion of PAS positive substance (PAS) in the wall of aorta,Wall of Aorta; [3],27.83 % E
same,Proportion of calcium (Ca) in the wall of aorta,Wall of Aorta; [3],1.92 % E
same,Proportion of cholesterol (Cho) in the wall of aorta,Wall of Aorta; [3],0.68 % E
same,Proportion of collagen (CL) in the wall of aorta,Wall of Aorta; [3],30.33 % E
same,Proportion of elastin (EL) in the wall of aorta,Wall of Aorta; [3],40.56 % E
same,Proportion of glycosaminoglycan (GAGs) in the wall of aorta,Wall of Aorta; [3],16.03 % E
same,Proportion of smooth muscle cell (SMC) in the wall of aorta,Wall of Aorta; [3],46.72 % E
same,Blood glucose level,[1],162.50 mg/dL
same,Cholesterol in blood (T-Cho),[1],25.25 mg/dL
same,HDL cholesterol (HDL-C),[1],15.44 mg/dL
same,Triglyceride (TG),[1],65.40 mg/dL
same,β-lipoprotein (β-Lp),[1],2.75 mg/dL
same,PWV as compared with the sclerosis group,"[2]; 150 days, vs sclerosis group",significantly improved
same,"Δ PWV, 0-50 days","[2]; rabbit, sclerosis diet + norepinephrine i.m., oral capsule 3 mg once per day, 0-50 days",-0.110 m/sec
same,"Δ PWV, 51-100 days","[2]; rabbit, sclerosis diet + norepinephrine i.m., oral capsule 3 mg once per day, 51-100 days",-0.290 m/sec
same,"Δ PWV, 101-150 days","[2]; rabbit, sclerosis diet + norepinephrine i.m., oral capsule 3 mg once per day, 101-150 days",-0.890 m/sec
same,LD50,in vivo; female mice,1290 mg/kg
same,LD50,in vivo; male mice,1390 mg/kg
CC(C)(C)NCC(O)COc1c[nH]c(=O)c2ccccc12 (centres unmarked) [4-(3-tert.-butylamino-2-hydroxypropoxy)-1-isoquinolinonehydrochloride],LD50,in vivo; female mice,1290 mg/kg
same,LD50,in vivo; male mice,1390 mg/kg
same,"LD50, range in parentheses",mice; female mice,1063 to 1566 mg/kg
same,"LD50, range in parentheses",mice; male mice,1223 to 1587 mg/kg
